Measurements taken from patent US20090203636A1, “Prevention and Treatment of Cancer and Other Diseases” (priority 2006, published 2009).
Converted amounts (≈) assume the structure as drawn. Counter-ions that a name gives are not always drawn.

Tests used:
[1] = MTT-microtiter plate tetrazolium cytotoxicity assay; type: cell-based; conditions: dog, MDCK (ATCC) cells; continuous exposure for 2 days; read-out: IC50 cytotoxic doses
Description: (a) Cytotoxcity Assay: The cytotoxic effects of compounds of the invention was determined using pharmacological models that are well known to the art, i.e., MTT-microtiter plate tetrazolium cytotoxicity Assay. Specifically, cytotoxicity assays were performed using the MIT assay procedure described in Mosmann, 1983, Rapid calorimetric assay for cellular growth and survival: application to proliferation and cytotoxicity assays, J Immunol Methods, 65:55-63. Briefly, the assay was performed by using 96-well microtiter plates plated at 10^4 MDCK (ATCC) cells/well, in […] of growth medium.
For determination of IC50 cells were exposed continuously for 2 days to varying concentrations of SN1, SN2, SN3, SN4 and valine ester of SN1. MIT assays were performed at the end of the 2nd day. […] All assays were performed at least 2 times in 3 replicate wells.

[2] = test system: HeLa cells; type: in vivo; conditions: Valcyte in drinking water (1 mg/ml) from day 0
Description: For in vivo assay, appropriate host, e.g., nude (nu/nu) mice of about 5-7 weeks old are obtained and maintained in pathogen-free conditions. Approximately, 1×10^6 HeLa cells (and/or U-2 OS cells) contained in 200 μl of serum-free media are delivered to all animals, briefly anaesthetize with Metofane, by subcutaneous (s.c.) injection in flank. Then the mice are divided into experimental group and control group. Appropriate concentrations of compounds of the formulas (I) to (VI), ACV, PCV and/or GCV are used for tumor growth progression or regression assays.
In one embodiment, impairment of s.c. tumor growth or time to progression rather than decrease in size of an established tumor (regression) is assessed. In this embodiment, starting from the day zero, mice in the experimental group receive GCV in drinking water ad libitum. Concentration of GCV in water can be 2 mg/ml. Fresh solution of GCV is supplied every 3 days. Mice in the control group receive only drinking water. Tumors are measured every 2-3 days. Mice are sacrificed when tumors exceed 1 cm^3. Tumor volume is calculated with formula 4/3πr^3, where r is the radius of the tumor.
Experimental group received valganciclovir in drinking water from day 0. Human cancer HeLa cell culture was purchased from ATCC. In all, 12 CD1/-nu and 12 NMRiI/-nu nude mice were purchased from Charles River Laboratories, Charles River Deutschland GmbH. These nude mice were injected s.c. with 3×10^5 Hela cells. Mice in the experimental groups (6 mice per strain) were exposed to Valcyte® (val-ganciclovir) in drinking water (1 mg/ml) from day 0.
(a) In vivo assays using Valganciclovir and zidovudine (AZT) combination: Human cancer HeLa cell culture was purchased from ATCC. A total of 24 CD1/-nu nude mice were purchased from Charles River laboratories, Charles River Deutschland GmbH. These mice were injected s.c. with 1×10^5 HeLa cells. The tumor volumes were determined by measurement of maximal and minimal diameters of the tumor. The calculations were conducted using the formula V=4/3 πRmax×Rmin^2, where Rmax−½ of maximal diameter of the tumor, and Rmin−½ of minimal diameter of the tumor. nude mice were injected s.c. with 1×10^5 Hela cells.
Of the 12 treated mice, after 20 days of double cocktail treatment, six mice were administered with a triple cocktail (Valcyte®+Retrovir®+ddI at the dose of 1 mg/ml each in drinking water for a further period 21 days (see Example 7 below) and only six mice continued to receive the double cocktail for another 21 days at which time tumor measurements were taken for all mice injected with HeLa cells. Of the remaining 12 mice injected with HeLa cells but untreated with any cocktail or anticancer agent thus far, six were maintained as controls for the rest of the duration of the experiment. The other six were treated with Xeloda® 67 days after the injection of HeLa cells (see Example 7 below).
As mentioned in Example 5 above, a total of six mice, after 20 days of double cocktail treatment, were administered with a triple cocktail (Valcyte®+Retrovir®+ddI at the dose of 1 mg/ml each in drinking water) for a further period 21 days. After 14 days of triple cocktail treatment, Xeloda® at a concentration 1 mg/ml was added to the triple cocktail. Six mice previously untreated with any drug for 67 days after the injection of HeLa cells were treated with Xeloda® at a concentration 1 mg/ml in drinking water. Tumor measurements were taken in all mice 75 days following the injection of HeLa cells.

[3] = test system: HeLa cells; test: Telomere length (flow cytometry, PNA probe), cell cycle distribution (PI) and apoptosis in HeLa cells; type: cell-based, human
Description: (§1) The ALT cell lines were treated with therapeutic concentrations of AZT, to determine if slippage telomeric DNA synthesis could be inhibited by AZT-TP, and thereby induce telomere shortening. Telomere length in AZT treated and untreated cell lines was measured by flow cytometry with a telomere specific peptide nucleic acid (PNA) probe. To determine cell cycle distribution, cells were stained with propidium iodide (PI).
(§2) The origin of the cell lines are uterine cervix (HeLa) and epithelial ovarian (NuTu-19). Cells were cultured in D-MEM media supplemented with 10% fetal calf serum at 37° C. in a humidified atmosphere of 5% CO2. For treatment of the cells with GCV, the media was supplemented with 1.5 μM of GCV (Cymevene, Hoffman-La Roche). For treatment of the cells with ACV, the media was supplemented with 3 μM of Acyclovir (Acyclovir, TEVA Pharm. Ind. Id. Israel).
(§3) Real time TRAP assay was performed as described (Wege et al., SYBR Green real-time telomeric repeat amplification protocol for the rapid quantification of telomerase activity. Nucleic Acids Res. 2003; 31(2):E3-3). For telomere length measurement by flow cytometry, cells were stained with telomere specific FITC conjugated (C3TA2)3 PNA (Applied Biosystems) probe and contrastained with 0.06 μg/ml PI as described by Rufer, N., Dragowska, W., Thornbury G., Roosnek, E., Lansdorp P. M. Telomere length dynamics in human lymphocyte subpopulations […]. Nat. Biotechnol. 16, 743-747 (1998)).
(§4) Both telomerase positive (Hela) telomerase negative (U-2 OS) cell lines were used. Appropriate assays were performed to detect and confirm telomerase/L1RT specific activity in these cells.
(§5) The U-2 OS (osteosarcoma) and HeLa (uterine cervix) cell lines used in this study were obtained from American Type Culture Collection (Rockville, Md.). Cells were cultured in D-MEM media supplemented with 10% fetal calf serum at 37° C. in a humidified atmosphere of 5% CO2. For treatment of the cells with ACV, the media was supplemented with 3 μM of acyclovir (acyclovir, TEVA Pharm. Ind. Ltd, Israel). For treatment of the cells with GCV, the media was supplemented with 1.5 μM of GCV (Cymevene, Hoffman-La Roche). For treatment of the cells with PCV, the media was supplemented with 1.5 μM of PCV (penciclovir, Merck & Co.).
(§6) Telomere length in SN 1 or SN 2 treated and untreated cell lines was measured by flow cytometry with a telomere—specific peptide nucleic acid PNA) probe. To determine cell cycle distribution, cells were stained with propidium iodide (PI).
(§7) The U-2 OS (osteosarcoma) and Hela (uterine cervix) cell lines used in this study were obtained from American Type Culture Collection (Rockville, Md.). Cells were cultured in D-MEM media supplemented with 10% fetal calf serum at 37° C. in a humidified atmosphere of 5% CO2. For treatment of the cells with SN 1 or SN 2, the media was supplemented with 1.5 μM of SN1 or SN2.
(§8) For telomere length measurement by flow cytometry, cells were stained with telomere specific FITC conjugated (C3TA2)3 PNA (Applied Biosystems) probe and contra-stained with 0.06 μg/ml PI as described by Rufer, N., Dragowska, W., Thornbury G., Roosnek, E., Lansdorp P. M. Telomere length dynamics in human lymphocyte subpopulations […]. Nat. Biotechnol. 16, 743-747 (1998)).

[4] = test system: U-2 OS cells; test: Telomere length (flow cytometry, PNA probe), cell cycle distribution (PI), apoptosis and TRAP status in U-2 OS cells; type: cell-based, human
Description: as §1
Rate of DNA synthesis was determined by incorporation of 5-bromodeoxyuridine (BdU). […] It is important to note that changes in cell cycle distribution, DNA synthesis and telomere length were rapid and could be detected after only 10 days of AZT treatment.
Telomere length in untreated and GCV treated cells was measured by flow cytometry with a telomere-specific PNA probe as described above.
To determine cell cycle distribution, cells were stained with propidium iodide (PI).
as §4, §5, §3
(a) In vitro arrays: U-2 OS cells were incubated with 0.2 μM of AZT for 22 days. Actively growing clones were analyzed by flow-FISH with telomere specific PNA probe, and in real time TRAP assay using HeLa cells as positive control. Isolated actively growing clones were different from parental cells in DNA content and telomere length.
as §6, §7, §8

[5] = test system: NuTu-19 cells; test: Telomere length (flow cytometry, PNA probe), cell cycle distribution (PI) and apoptosis in NuTu-19 cells; type: cell-based; conditions: GCV 1.5 μM or ACV 3.0 μM, 14 days (Example 2b)
Description: as §2, §3

[6] = test system: Saos-2 osteosarcoma cells; conditions: therapeutic concentrations, 14 days; reported in WO 2005/069880; cited from earlier work
[7] = test system: U-2 OS cells; conditions: therapeutic concentrations, 14 days; reported in WO 2005/069880; cited from earlier work
[8] = ACV 3.0, GCV 1.5 μM or PCV 1.5 μM, 10 and 14 days (Example 2c)
[9] = GCV 1.5 μM or ACV 3.0 μM, 14 days (Example 2b)

Nc1ncnc2c1ncn2COC(CO)CO [SN4, 9-[(1,3-Dihydroxy-2-propoxy)methyl]-adenine]
IC50 at 2 days [1]: > 1000 µg/mL

Cc1cn(COCCOC(=O)[C@@H](N)C(C)C)c(=O)[nH]c1=O [VSN1, 2-[(5-Methyluracil-1-yl)methoxy]-ethyl L-valinate hydrochloride monohydrate]
IC50 at 2 days [1]: > 1000 µg/mL

CC(C)[C@H](N)C(=O)OCC(CO)OCn1cnc2c(=O)nc(N)[nH]c21 (stereo partly drawn) [Valcyte®]
tumor growth in the other treated mice [2]: slowing of tumor growth
tumor development ([2]; about 14 days): All mice in control and treated groups had developed tumors
mice in which the tumor regressed and was eliminated by monotherapy ([2]; by about day 30): one

Nc1nc2c(ncn2CCC(CO)CO)c(=O)[nH]1 [PCV]
telomere length, apoptosis and cell cycle distribution [3, 8]: telomere shortening, massive apoptosis and G2 arrest
telomere length, apoptosis and cell cycle distribution [4, 8]: telomere shortening, massive apoptosis and G2 arrest

Nc1nc(O)c2ncn(COC(CO)CO)c2n1 [GCV]
telomere length, apoptosis and cell cycle distribution [5]: telomere shortening, massive apoptosis and G2 arrest
telomere length, cell cycle and apoptosis [6]: telomere shortening, G2 arrest and massive apoptosis
telomere length, cell cycle and apoptosis [7]: telomere shortening, G2 arrest and massive apoptosis
telomere length, apoptosis and cell cycle distribution [3, 8]: telomere shortening, massive apoptosis and G2 arrest
telomere length, apoptosis and cell cycle distribution [3, 9]: telomere shortening, massive apoptosis and G2 arrest
telomere length, apoptosis and cell cycle distribution [4, 8]: telomere shortening, massive apoptosis and G2 arrest
telomere length, apoptosis and cell cycle distribution ([4]; GCV 0.3 μg/ml, 14 days): telomere shortening, massive apoptosis programmed cell death) and G2 arrest

Nc1ncnc2c1ncn2COCCO [SN2, 9-[(2-Hydroxyethoxy)methyl]-adenine]
telomere length, apoptosis and cell cycle distribution ([3]; SN 1 or SN 2 1.5 μM, 14 days): telomere shortening, massive apoptosis and G2 arrest
IC50 at 2 days [1]: 750 µg/mL (≈ 3.58 mM)

Cc1cn(COC(CO)CO)c(=O)[nH]c1=O [SN3, 1-[(1,3-Dihydroxy-2-propoxy)methyl]-5-methyluracil]
melting point: 156 to 157 °C
IC50 at 2 days [1]: > 1000 µg/mL

Nc1nc2c(ncn2COCCO)c(=O)[nH]1 [ACV, 9-[2(hydromethoxy)-methyl]guanine]
telomere length, apoptosis and cell cycle distribution [5]: telomere shortening, massive apoptosis and G2 arrest
telomere length, apoptosis and cell cycle distribution [3, 8]: telomere shortening, massive apoptosis and G2 arrest
telomere length, apoptosis and cell cycle distribution [3, 9]: telomere shortening, massive apoptosis and G2 arrest
telomere length, apoptosis and cell cycle distribution [4, 8]: telomere shortening, massive apoptosis and G2 arrest

Cc1cn(COCCO)c(=O)[nH]c1=O [SN1, 1-[(2-Hydroxyethoxy)methyl]-5-methyluracil]
telomere length, apoptosis and cell cycle distribution ([3]; SN 1 or SN 2 1.5 μM, 14 days): telomere shortening, massive apoptosis and G2 arrest
IC50 at 2 days [1]: 750 µg/mL (≈ 3.75 mM)
